Laboratory results reported in US12479856B2, “Pharmaceutical compounds for the treatment of complement mediated disorders” (Achillion Pharmaceuticals, Inc., priority 2019, dated 2025).

Each compound was assayed against T1, Human complement C1s enzyme (Homo sapiens, UniProt P09871) (assay: Human C1s Enzyme Assay). Conditions: Table 1; C1s purified from human serum, 1.16 nM; substrate Z-L-Lys-SBzl; read-out: C1s Protease Activity.
T1 construct: purified from human serum, Complement Technology, Inc; purchased Complement Technology, Inc; host or cells: human serum (plasma-derived natural protein)
T1 sequence (P09871 438-688 limits assumed): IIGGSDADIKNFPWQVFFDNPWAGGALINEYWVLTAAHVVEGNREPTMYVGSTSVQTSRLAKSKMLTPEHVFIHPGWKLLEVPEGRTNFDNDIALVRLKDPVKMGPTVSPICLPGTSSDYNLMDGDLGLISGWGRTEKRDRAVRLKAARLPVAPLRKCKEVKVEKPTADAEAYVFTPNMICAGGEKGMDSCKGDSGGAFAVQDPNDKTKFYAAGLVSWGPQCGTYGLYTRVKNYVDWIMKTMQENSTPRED
T1 sequence (P09871 16-437 partner limits assumed): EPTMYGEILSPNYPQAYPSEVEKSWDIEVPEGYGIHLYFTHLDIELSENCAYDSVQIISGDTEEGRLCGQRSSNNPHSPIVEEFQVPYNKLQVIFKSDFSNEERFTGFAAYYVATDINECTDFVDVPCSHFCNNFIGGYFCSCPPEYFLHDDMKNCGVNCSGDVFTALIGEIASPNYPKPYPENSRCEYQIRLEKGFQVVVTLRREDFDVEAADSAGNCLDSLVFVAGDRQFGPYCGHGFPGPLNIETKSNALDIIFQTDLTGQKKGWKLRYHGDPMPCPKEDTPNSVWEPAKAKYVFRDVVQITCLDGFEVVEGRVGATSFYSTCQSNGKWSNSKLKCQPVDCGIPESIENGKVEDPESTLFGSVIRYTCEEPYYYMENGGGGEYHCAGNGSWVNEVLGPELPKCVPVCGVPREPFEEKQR
Type: biochemical
Method: Example 4. Human C1s Enzyme Assay
Human complement C1s enzyme (purified from human serum, Complement Technology, Inc.) at 1.16 nM final concentration is incubated with test compound at various concentrations for 5 min at room temperature in 50 mM Tris, 1 M NaCl, pH 7.5. A synthetic substrate Z-L-Lys-SBzl and DTNB (Ellman's reagent) are added to final concentrations of 100 μM each. Absorbance at 405 nm (A405) is recorded at 30 second intervals for 30 min using a microplate spectrophotometer. IC50 values are calculated by nonlinear regression of complement C1s reaction rates as a function of test compound concentration.
For `N=C(N)c1csc(CNC(=O)[C@@H]2CC3(CCCC3)CN2C(=O)CNC(=O)c2ccc(Oc3ccccc3)cc2)c1` [Compound 12, (3S)—N-[(4-Carbamimidoylthiophen-2-yl)methyl]-2-{2-[(4-phenoxyphenyl)formamido]acetyl}-2-azaspiro[4.4]nonane-3-carboxamide], the IC50 was < 100 nM. In the case of `N=C(N)c1csc(CNC(=O)[C@@H]2CC3(CCCCC3)CN2C(=O)CNC(=O)c2ccc(Oc3ccccc3)cc2)c1` [Compound 13, (3S)—N-[(4-Carbamimidoylthiophen-2-yl)methyl]-2-{2-[(4-phenoxyphenyl)formamido]acetyl}-2-azaspiro[4.5]decane-3-carboxamide], the IC50 is reported as > 1000 nM. `N=C(N)c1csc(CNC(=O)[C@@H]2CN2C(=O)CNC(=O)c2ccc(Oc3ccccc3)cc2)c1` [Compound 14, (2S)—N-[(4-Carbamimidoylthiophen-2-yl)methyl]-1-{2-[(4-phenoxyphenyl)formamido]acetyl}aziridine-2-carboxamide] was tested, and the IC50 was 100 to 1000 nM. For `N=C(N)c1csc(CNC(=O)[C@@H]2CC(=O)CN2C(=O)CNC(=O)c2ccc(Oc3ccccc3)cc2)c1` [Compound 15, (2S)—N-[(4-Carbamimidoylthiophen-2-yl)methyl]-4-oxo-1-{2-[(4-phenoxyphenyl)formamido]acetyl}pyrrolidine-2-carboxamide], the IC50 was < 100 nM. In the case of `N=C(N)CCCNC(=O)[C@@H]1CC2(CN1C(=O)CNC(=O)c1ccc(Oc3ccccc3)cc1)OCCO2` [Compound 16, (8S)—N-(3-Carbamimidoylpropyl)-7-{2-[(4-phenoxyphenyl)formamido]acetyl}-1,4-dioxa-7-azaspiro[4.4]nonane-8-carboxamide], the IC50 is reported as > 1000 nM. For `N=C(N)CCCCNC(=O)[C@@H]1CC2(CN1C(=O)CNC(=O)c1ccc(Oc3ccccc3)cc1)OCCO2` [Compound 17, (8S)—N-(4-Carbamimidoylbutyl)-7-{2-[(4-phenoxyphenyl)formamido]acetyl}-1,4-dioxa-7-azaspiro[4.4]nonane-8-carboxamide], the IC50 was > 1000 nM. For `N=C(N)c1cccc(CNC(=O)[C@@H]2CC3(CN2C(=O)CNC(=O)c2ccc(Oc4ccccc4)cc2)OCCO3)c1` [Compound 18, (8S)—N-[(3-Carbamimidoylphenyl)methyl]-7-{2-[(4-phenoxyphenyl)formamido]acetyl}-1,4-dioxa-7-azaspiro[4.4]nonane-8-carboxamide], the IC50 was > 1000 nM. `N=C(N)c1ccc(CNC(=O)[C@@H]2CC3(CN2C(=O)CNC(=O)c2ccc(Oc4ccccc4)cc2)OCCO3)cc1` [Compound 19, (8S)—N-[(4-Carbamimidoylphenyl)methyl]-7-{2-[(4-phenoxyphenyl)formamido]acetyl}-1,4-dioxa-7-azaspiro[4.4]nonane-8-carboxamide] was tested, and the IC50 was < 100 nM. With `CC(=O)Nc1cccc(CNC(=O)[C@@H]2CC3(CN2C(=O)CNC(=O)c2ccc(Oc4ccccc4)cc2)OCCO3)c1` [Compound 20, (8S)—N-[(3-Acetamidophenyl)methyl]-7-{2-[(4-phenoxyphenyl)formamido]acetyl}-1,4-dioxa-7-azaspiro[4.4]nonane-8-carboxamide] the IC50 was > 1000 nM. With `CC(=O)Nc1ccc(CNC(=O)[C@@H]2CC3(CN2C(=O)CNC(=O)c2ccc(Oc4ccccc4)cc2)OCCO3)cc1` [Compound 21, (8S)—N-[(4-Acetamidophenyl)methyl]-7-{2-[(4-phenoxyphenyl)formamido]acetyl}-1,4-dioxa-7-azaspiro[4.4]nonane-8-carboxamide] the IC50 was > 1000 nM. With `N=C(N)NCCC[C@H](NC(=O)[C@@H]1CC2(CN1C(=O)CNC(=O)c1ccc(Oc3ccccc3)cc1)OCCO2)C(N)=O` [Compound 22, N-{2-[(8S)-8-{[(1S)-4-Carbamimidamido-1-carbamoylbutyl]carbamoyl}-1,4-dioxa-7-azaspiro[4.4]nonan-7-yl]-2-oxoethyl}-4-phenoxybenzamide] the IC50 was > 1000 nM. With `Nc1ccc(CCNC(=O)[C@@H]2CC3(CN2C(=O)CNC(=O)c2ccc(Oc4ccccc4)cc2)OCCO3)cc1` [Compound 23, (8S)—N-[2-(4-Aminophenyl)ethyl]-7-{2-[(4-phenoxyphenyl)formamido]acetyl}-1,4-dioxa-7-azaspiro[4.4]nonane-8-carboxamide] the IC50 was > 1000 nM. With `Nc1cc(CCNC(=O)[C@@H]2CC3(CN2C(=O)CNC(=O)c2ccc(Oc4ccccc4)cc2)OCCO3)ccn1` [Compound 24, (8S)—N-[2-(2-Aminopyridin-4-yl)ethyl]-7-{2-[(4-phenoxyphenyl)formamido]acetyl}-1,4-dioxa-7-azaspiro[4.4]nonane-8-carboxamide] the IC50 was > 1000 nM. `NCCCCNC(=O)[C@@H]1CC2(CN1C(=O)CNC(=O)c1ccc(Oc3ccccc3)cc1)OCCO2` [Compound 25, (8S)—N-(4-Aminobutyl)-7-{2-[(4-phenoxyphenyl)formamido]acetyl}-1,4-dioxa-7-azaspiro[4.4]nonane-8-carboxamide] was tested, and the IC50 was > 1000 nM. For `NCCCCCNC(=O)[C@@H]1CC2(CN1C(=O)CNC(=O)c1ccc(Oc3ccccc3)cc1)OCCO2` [Compound 26, (8S)—N-(5-Aminopentyl)-7-{2-[(4-phenoxyphenyl)formamido]acetyl}-1,4-dioxa-7-azaspiro[4.4]nonane-8-carboxamide], the IC50 was > 1000 nM. With `NCCCCCCNC(=O)[C@@H]1CC2(CN1C(=O)CNC(=O)c1ccc(Oc3ccccc3)cc1)OCCO2` [Compound 27, (8S)—N-(6-Aminohexyl)-7-{2-[(4-phenoxyphenyl)formamido]acetyl}-1,4-dioxa-7-azaspiro[4.4]nonane-8-carboxamide] the IC50 was > 1000 nM. In the case of `N=C(N)CCCNC(=O)[C@@H]1CCCN1C(=O)CNC(=O)c1ccc(Oc2ccccc2)cc1` [Compound 28, (S)-N-(4-amino-4-iminobutyl)-1-((4-phenoxybenzoyl)glycyl)pyrrolidine-2-carboxamide], the IC50 is reported as > 1000 nM. `N=C(N)CCCCNC(=O)[C@@H]1CCCN1C(=O)CNC(=O)c1ccc(Oc2ccccc2)cc1` [Compound 29, (S)-N-(5-amino-5-iminopentyl)-1-((4-phenoxybenzoyl)glycyl)pyrrolidine-2-carboxamide] was tested, and the IC50 was > 1000 nM. `C[C@H]1C[C@@H](C(=O)NCc2cc(C(=N)N)cs2)N(C(=O)CNC(=O)c2ccc(Oc3ccccc3)cc2)C1` [Compound 30, (2S,4S)—N-[(4-carbamimidoylthiophen-2-yl)methyl]-4-methyl-1-{2-[(4-phenoxyphenyl)formamido]acetyl}pyrrolidine-2-carboxamide] was tested, and the IC50 was < 100 nM. With `N=C(N)c1csc(CNC(=O)[C@@H]2C[C@@H](O)CN2C(=O)CNC(=O)c2ccc(Oc3ccccc3)cc2)c1` [Compound 31, (2S,4R)—N-[(4-carbamimidoylthiophen-2-yl)methyl]-4-hydroxy-1-{2-[(4-phenoxyphenyl)formamido]acetyl}pyrrolidine-2-carboxamide] the IC50 was < 100 nM. With `CO[C@@H]1C[C@@H](C(=O)NCc2cc(C(=N)N)cs2)N(C(=O)CNC(=O)c2ccc(Oc3ccccc3)cc2)C1` [Compound 32, (2S,4R)—N-[(4-carbamimidoylthiophen-2-yl)methyl]-4-methoxy-1-{2-[(4-phenoxyphenyl)formamido]acetyl}pyrrolidine-2-carboxamide] the IC50 was < 100 nM. For `CO[C@H]1C[C@@H](C(=O)NCc2cc(C(=N)N)cs2)N(C(=O)CNC(=O)c2ccc(Oc3ccccc3)cc2)C1` [Compound 33, (2S,4S)—N-[(4-carbamimidoylthiophen-2-yl)methyl]-4-methoxy-1-{2-[(4-phenoxyphenyl)formamido]acetyl}pyrrolidine-2-carboxamide], the IC50 was < 100 nM.
